In US11820766B2, “Monoacylglycerol lipase modulators” (Janssen Pharmaceutica NV, priority 2018, dated 2023):
Counter-ions that a name gives are not always drawn.

The compounds below were run against T1, human MGL from HeLa cells (Homo sapiens, UniProt Q99685) (assay: In vitro MGL activity assay: [glycerol-1,3-3H]-oleyl glycerol cleavage by MGL from HeLa cells). Settings: 300 nM [Glycerol-1,3-3H]-oleyl glycerol, one hour.
T1 construct: combining endogenously expressed MGL from HeLa cells with test compounds; endogenous in cells; host or cells: HeLa cells / cell homogenates
T1 sequence (Q99685 1-303): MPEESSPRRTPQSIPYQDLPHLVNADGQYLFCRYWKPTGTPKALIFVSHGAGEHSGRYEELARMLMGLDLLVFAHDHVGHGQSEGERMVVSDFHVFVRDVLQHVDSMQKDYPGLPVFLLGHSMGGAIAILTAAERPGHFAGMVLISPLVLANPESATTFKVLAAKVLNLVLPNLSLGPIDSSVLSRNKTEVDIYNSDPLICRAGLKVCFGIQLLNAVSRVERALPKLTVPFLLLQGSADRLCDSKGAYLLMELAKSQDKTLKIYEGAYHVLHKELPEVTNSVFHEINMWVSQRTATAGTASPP
Assay type: biochemical
Source text: MGL is the predominant hydrolase in HeLa cells/cell homogenates.

| Compound | IC50 [nM] |
| --- | --- |
| C[C@H]1c2nn(C)c(-c3cc(F)c(F)c(F)c3)c2CCN1C(=O)c1n[nH]c2ncc(F)cc12 [Example 428, [(7S)-2,7-Dimethyl-3-(3,4,5-trifluorophenyl)-5,7-dihydro-4H-pyrazolo[3,4-c]pyridin-6-yl]-(5-fluoro-1H-pyrazolo[3,4-b]pyridin-3-yl)methanone.TFA salt] | 23 |
| C[C@H]1c2nn(C)c(-c3cc(F)c(F)c(F)c3)c2CCN1C(=O)c1cnn(C)c1C1(F)CC1 [Example 335, [(7S)-2,7-Dimethyl-3-(3,4,5-trifluorophenyl)-5,7-dihydro-4H-pyrazolo[3,4-c]pyridin-6-yl]-[5-(1-fluorocyclopropyl)-1-methyl-pyrazol-4-yl]methanone] | 32.1 |
| C[C@H]1c2nn(C)c(-c3cc(F)c(F)c(F)c3)c2CCN1C(=O)c1cnc2ccccc2n1 [Example 477, [(7S)-2,7-Dimethyl-3-(3,4,5-trifluorophenyl)-5,7-dihydro-4H-pyrazolo[3,4-c]pyridin-6-yl]-quinoxalin-2-yl-methanone] | 126 |
| Cc1cn2nc(C(=O)N3CCc4c(nn(C)c4-c4cc(F)c(F)c(F)c4)[C@@H]3C)ccc2n1 [Example 453, [(7S)-2,7-Dimethyl-3-(3,4,5-trifluorophenyl)-5,7-dihydro-4H-pyrazolo[3,4-c]pyridin-6-yl]-(2-methylimidazo[1,2-b]pyridazin-6-yl)methanone] | 165 |
| C[C@H]1c2nn(C)c(-c3cc(F)c(F)c(F)c3)c2CCN1C(=O)c1cccc2c1OCCN2 [Example 592, 3,4-Dihydro-2H-1,4-benzoxazin-8-yl-[(7S)-2,7-dimethyl-3-(3,4,5-trifluorophenyl)-5,7-dihydro-4H-pyrazolo[3,4-c]pyridin-6-yl]methanone] | 7.31 |
| C[C@H]1c2nn(C)c(-c3cccc4cc[nH]c34)c2CCN1C(=O)c1ccc2ncccc2c1 [Example 531, [(7S)-3-(1H-Indol-7-yl)-2,7-dimethyl-5,7-dihydro-4H-pyrazolo[3,4-c]pyridin-6-yl]-(6-quinolyl)methanone] | 22.9 |
| C[C@H]1c2nn(C)c(-c3cc(F)c(F)c(F)c3)c2CCN1C(=O)c1c(C(F)F)nc2n1CCCC2 [Example 561, [2-(Difluoromethyl)-5,6,7,8-tetrahydroimidazo[1,2-a]pyridin-3-yl]-[(7S)-2,7-dimethyl-3-(3,4,5-trifluorophenyl)-5,7-dihydro-4H-pyrazolo[3,4-c]pyridin-6-yl]methanone] | 326 |
| Cc1ccc2c(C(=O)N3CCc4c(nn(C)c4-c4cc(F)c(F)c(F)c4)[C@@H]3C)c[nH]c2c1 [Example 360, [(7S)-2,7-Dimethyl-3-(3,4,5-trifluorophenyl)-5,7-dihydro-4H-pyrazolo[3,4-c]pyridin-6-yl]-(6-methyl-1H-indol-3-yl)methanone] | 46.8 |
| Cc1cccc2ncc(C(=O)N3CCc4c(nn(C)c4-c4cc(F)c(F)c(F)c4)[C@@H]3C)n12 [Example 401, [(7S)-2,7-Dimethyl-3-(3,4,5-trifluorophenyl)-5,7-dihydro-4H-pyrazolo[3,4-c]pyridin-6-yl]-(5-methylimidazo[1,2-a]pyridin-3-yl)methanone] | 14.5 |
| Cc1nc2cc(F)ccn2c1C(=O)N1CCc2c(nn(C)c2-c2cc(F)c(F)c(F)c2)[C@@H]1C [Example 402, [(7S)-2,7-Dimethyl-3-(3,4,5-trifluorophenyl)-5,7-dihydro-4H-pyrazolo[3,4-c]pyridin-6-yl]-(7-fluoro-2-methyl-imidazo[1,2-a]pyridin-3-yl)methanone] | 21.6 |
| C[C@H]1c2nn(C)c(-c3cc(F)c(F)c(F)c3)c2CCN1C(=O)c1cn(C)nc1C1(C)CC1 [Example 347, [(7S)-2,7-Dimethyl-3-(3,4,5-trifluorophenyl)-5,7-dihydro-4H-pyrazolo[3,4-c]pyridin-6-yl]-[1-methyl-3-(1-methylcyclopropyl)pyrazol-4-yl]methanone] | 2490 |
| C[C@H]1c2nn(C)c(-c3cc(F)c(F)c(F)c3)c2CCN1C(=O)c1ccc2c(c1)CCOC2 [Example 578, [(7S)-2,7-Dimethyl-3-(3,4,5-trifluorophenyl)-5,7-dihydro-4H-pyrazolo[3,4-c]pyridin-6-yl]-isochroman-6-yl-methanone] | 27.4 |
| COc1ccc(-c2c3c(nn2C)[C@H](C)N(C(=O)c2ccc4ncccc4c2)CC3)cn1 [Example 525, [(7S)-3-(6-Methoxy-3-pyridyl)-2,7-dimethyl-5,7-dihydro-4H-pyrazolo[3,4-c]pyridin-6-yl]-(6-quinolyl)methanone] | 602 |
| C[C@H]1c2nn(C)c(-c3cc(F)c(F)c(F)c3)c2CCN1C(=O)c1cnn2c1CCCC2 [Example 552, [(7S)-2,7-Dimethyl-3-(3,4,5-trifluorophenyl)-5,7-dihydro-4H-pyrazolo[3,4-c]pyridin-6-yl]-(4,5,6,7-tetrahydropyrazolo[1,5-a]pyridin-3-yl)methanone] | 40.4 |
| COc1nccc(C(=O)N2CCc3c(nn(C)c3-c3ccc(F)c(C)c3)[C@@H]2C)c1C [Example 598, [(7S)-3-(4-Fluoro-3-methyl-phenyl)-2,7-dimethyl-5,7-dihydro-4H-pyrazolo[3,4-c]pyridin-6-yl]-(2-methoxy-3-methyl-4-pyridyl)methanone] | 29.9 |

Same assay, conditions: 300 nM [Glycerol-1,3-3H]-oleyl glycerol, one hour incubation

| Compound | IC50 [nM] |
| --- | --- |
| Cn1nc2c(c1-c1ccccc1)CCN(C(=O)c1cccc3occc13)C2 [Example 34, Benzofuran-4-yl(2-methyl-3-phenyl-2,4,5,7-tetrahydro-6H-pyrazolo[3,4-c]pyridin-6-yl)methanone] | 300 |
| C[C@H]1c2nn(C)c(-c3cc(F)cc(F)c3)c2CCN1C(=O)c1cc(C(F)(F)F)c2ncccc2c1 [Example 164, (S)-(3-(3,5-Difluorophenyl)-2,7-dimethyl-2,4,5,7-tetrahydro-6H-pyrazolo[3,4-c]pyridin-6-yl)(8-(trifluoromethyl)quinolin-6-yl)methanone] | 38.4 |
| Cn1nc2c(c1-c1ccccc1)CCN(C(=O)c1ccc3ccccc3n1)C2 [Example 94, (2-Methyl-3-phenyl-2,4,5,7-tetrahydro-6H-pyrazolo[3,4-c]pyridin-6-yl)(quinolin-2-yl)methanone] | 282 |
| C[C@H]1c2nn(C)c(-c3cc(F)c(F)c(F)c3)c2CCN1C(=O)c1c(F)cccc1-n1cncn1 [Example 280, [(7S)-2,7-Dimethyl-3-(3,4,5-trifluorophenyl)-5,7-dihydro-4H-pyrazolo[3,4-c]pyridin-6-yl]-[2-fluoro-6-(1,2,4-triazol-1-yl)phenyl]methanone] | 7.77 |
| C[C@H]1c2nn(C)c(-c3cc(F)c(F)c(F)c3)c2CCN1C(=O)c1cnn(C)c1C1CC1 [Example 201, (S)-(5-Cyclopropyl-1-methyl-1H-pyrazol-4-yl)(2,7-dimethyl-3-(3,4,5-trifluorophenyl)-2,4,5,7-tetrahydro-6H-pyrazolo[3,4-c]pyridin-6-yl)methanone] | 6.26 |
| Cn1nc2c(c1-c1ccccc1)CCN(C(=O)c1ncn3ccccc13)C2 [Example 76, Imidazo[1,5-a]pyridin-1-yl(2-methyl-3-phenyl-2,4,5,7-tetrahydro-6H-pyrazolo[3,4-c]pyridin-6-yl)methanone] | 6110 |
| Cn1nc2c(c1-c1ccccc1)CCN(C(=O)c1nsc3ccccc13)C2 [Example 63, Benzo[d]isothiazol-3-yl(2-methyl-3-phenyl-2,4,5,7-tetrahydro-6H-pyrazolo[3,4-c]pyridin-6-yl)methanone] | 49 |
| C[C@H]1c2nn(C)c(-c3cc(F)cc(F)c3)c2CCN1C(=O)c1ccc2ncccc2c1 (single isomer, unassigned) [Example 159] | 7.3 |
| Cn1nc2c(c1-c1ccccc1)CCN(C(=O)c1ccc3cn[nH]c3c1)C2 [Example 68, (1H-Indazol-6-yl)(2-methyl-3-phenyl-2,4,5,7-tetrahydro-6H-pyrazolo[3,4-c]pyridin-6-yl)methanone] | 2190 |
| Cn1nc2c(c1-c1ccccc1)CCN(C(=O)c1cccc3c1NC(=O)CO3)C2 [Example 26, 5-(2-Methyl-3-phenyl-4,5,6,7-tetrahydro-2H-pyrazolo[3,4-c]pyridine-6-carbonyl)-2H-benzo[b][1,4]oxazin-3(4H)-one] | 2460 |
| C[C@@H]1c2nn(C)c(-c3ccccc3)c2CCN1C(=O)c1ccc2ncccc2c1 (single isomer, unassigned) [Example 111] | 8240 |
| Cn1nc2c(c1-c1cc3ccccc3[nH]1)CCN(C(=O)c1ccc3ncccc3c1)C2 [Example 104, (3-(1H-Indol-2-yl)-2-methyl-2,4,5,7-tetrahydro-6H-pyrazolo[3,4-c]pyridin-6-yl)(quinolin-6-yl)methanone] | 791 |
| COc1cnc(C)c(C(=O)N2CCc3c(nn(C)c3-c3cc(F)c(F)c(F)c3)[C@@H]2C)c1 [Example 308, [(7S)-2,7-Dimethyl-3-(3,4,5-trifluorophenyl)-5,7-dihydro-4H-pyrazolo[3,4-c]pyridin-6-yl]-(5-methoxy-2-methyl-3-pyridyl)methanone] | 115 |
| CC1c2nn(-c3ccccc3)c(-c3ccccc3)c2CCN1C(=O)c1ccc2ncccc2c1 (stereo not shown) [Example 113, (7-Methyl-2,3-diphenyl-2,4,5,7-tetrahydro-6H-pyrazolo[3,4-c]pyridin-6-yl)(quinolin-6-yl)methanone] | 236 |
| C[C@H]1c2nn(C)c(-c3cc(F)cc(F)c3)c2CCN1C(=O)c1cnc2ccoc2c1 [Example 153, (S)-(3-(3,5-Difluorophenyl)-2,7-dimethyl-2,4,5,7-tetrahydro-6H-pyrazolo[3,4-c]pyridin-6-yl)(furo[3,2-b]pyridin-6-yl)methanone] | 15.4 |
| Cn1nc2c(c1-c1ccccc1)CCN(C(=O)c1cccc3nccnc13)C2 [Example 97, (2-Methyl-3-phenyl-2,4,5,7-tetrahydro-6H-pyrazolo[3,4-c]pyridin-6-yl)(quinoxalin-5-yl)methanone] | 4260 |
